For one series, the target named is Sirt7 (Homo sapiens (Human), UniProt Q9NRC8). In words: Sirtuin deacylase inhibition, HPLC assay (H3K9Myr peptide). The format is biochemical. The settings on record: 1 μM sirtuin, 1 mM NAD, 30 min pre-incubation, 1 hour. As to the method: (§1) Distinct selectivity profiles were found for each of the inhibitors studied. Different concentrations of TA, TB, TH, or TM were pre-incubated with 1 μM of the sirtuin and 1 mM NAD in 20 mM Tris-HCl buffer (pH 8.0) with 1 mM dithiothreitol (DTT) at 37° C. for 30 minutes. Then 0.05 mM acyl peptides (H3K9Ac for Sirt1, Sirt2 and Sirt3; H3K9Su for Sirt5; H3K9Myr for Sirt6 and Sirt7) were added to initiate the reactions. The total reaction volume iwas […]. Then reactions were incubated at 37° C. for a certain amount of time (2 minutes for Sirt1, 10 minutes for Sirt2 and Sirt5, 30 minutes for Sirt3, and 1 hour for Sirt6 and Sirt7). The reactions were stopped by adding […] of an aqueous solution containing 200 mM HCl and 320 mM acetic acid. After centrifugation to remove precipitated proteins, the supernatant was analyzed by HPLC with a reverse phase C18 column (250×4.6 mm, 90 A, […], GraceVydac, Southborough, Mass.), with a linear gradient of 0% to 20% B for 10 minutes (1 mL/min). […] All reactions were done in duplicate.
Sequence of Sirt7 (Q9NRC8 whole entry): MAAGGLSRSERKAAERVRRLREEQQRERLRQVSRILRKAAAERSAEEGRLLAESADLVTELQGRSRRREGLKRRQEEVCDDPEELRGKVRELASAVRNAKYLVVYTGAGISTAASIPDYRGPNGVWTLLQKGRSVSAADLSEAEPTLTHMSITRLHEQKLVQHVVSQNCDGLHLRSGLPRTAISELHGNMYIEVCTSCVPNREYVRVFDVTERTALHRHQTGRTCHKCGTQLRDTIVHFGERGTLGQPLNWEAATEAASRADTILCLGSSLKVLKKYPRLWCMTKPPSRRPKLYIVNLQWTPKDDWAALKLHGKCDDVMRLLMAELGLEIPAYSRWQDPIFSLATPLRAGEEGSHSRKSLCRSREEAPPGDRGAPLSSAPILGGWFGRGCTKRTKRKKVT

The target of another series is Sirt6 (Homo sapiens (Human), UniProt Q8N6T7). The description is as above. The format is biochemical. The following applies: 1 μM sirtuin, 1 mM NAD, 30 min pre-incubation, 1 hour. As to the method: as §1
Sequence of Sirt6 (Q8N6T7 whole entry): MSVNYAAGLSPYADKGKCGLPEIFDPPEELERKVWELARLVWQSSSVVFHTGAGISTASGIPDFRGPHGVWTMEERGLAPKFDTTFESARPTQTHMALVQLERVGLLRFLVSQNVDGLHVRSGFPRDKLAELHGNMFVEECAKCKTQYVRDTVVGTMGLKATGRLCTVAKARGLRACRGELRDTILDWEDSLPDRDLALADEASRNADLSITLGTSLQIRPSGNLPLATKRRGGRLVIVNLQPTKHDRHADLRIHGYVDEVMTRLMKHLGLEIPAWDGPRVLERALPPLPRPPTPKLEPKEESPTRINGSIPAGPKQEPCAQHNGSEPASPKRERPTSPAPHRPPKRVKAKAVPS
The next series deals with Sirt1 (Homo sapiens (Human), UniProt Q96EB6). In words: Sirtuin deacylase inhibition, HPLC assay (H3K9Ac peptide). The following applies: for IC50: 1 μM sirtuin, 1 mM NAD, 30 min pre-incubation, H3K9Ac, 2 minutes; for inhibition of Sirt1 (in words): summary of Table 1. The format is biochemical. As to the method: as §1, with “Then” for “Distinct selectivity profiles were found for each of the inhibitors studied. Different concentrations of TA, TB, TH, or TM were pre-incubated with 1 μM of the sirtuin and 1 mM NAD in 20 mM Tris-HCl buffer (pH 8.0) with 1 mM dithiothreitol (DTT) at 37° C. for 30 minutes. Then”
Sequence of Sirt1 (Q96EB6 whole entry): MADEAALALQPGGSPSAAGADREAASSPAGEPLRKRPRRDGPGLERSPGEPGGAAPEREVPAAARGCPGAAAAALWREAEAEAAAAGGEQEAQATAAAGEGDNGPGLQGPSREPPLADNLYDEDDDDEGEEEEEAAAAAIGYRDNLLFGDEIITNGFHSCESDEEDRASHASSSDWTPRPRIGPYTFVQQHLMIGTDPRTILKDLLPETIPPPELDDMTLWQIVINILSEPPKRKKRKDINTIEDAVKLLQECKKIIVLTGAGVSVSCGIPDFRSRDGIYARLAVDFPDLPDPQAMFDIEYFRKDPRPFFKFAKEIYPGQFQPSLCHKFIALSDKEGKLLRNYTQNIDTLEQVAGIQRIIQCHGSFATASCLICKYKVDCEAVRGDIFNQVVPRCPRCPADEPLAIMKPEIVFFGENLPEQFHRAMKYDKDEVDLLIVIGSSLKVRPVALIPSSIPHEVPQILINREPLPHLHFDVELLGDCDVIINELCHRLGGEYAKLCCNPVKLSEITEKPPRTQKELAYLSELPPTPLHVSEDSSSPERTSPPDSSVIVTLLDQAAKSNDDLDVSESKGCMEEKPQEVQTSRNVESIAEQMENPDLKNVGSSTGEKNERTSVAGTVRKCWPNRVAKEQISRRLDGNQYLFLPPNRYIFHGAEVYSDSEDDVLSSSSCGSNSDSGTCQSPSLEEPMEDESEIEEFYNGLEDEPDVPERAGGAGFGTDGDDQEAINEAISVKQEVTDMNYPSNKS

The target in another series is Sirt2 (Homo sapiens (Human), UniProt Q8IXJ6). Described as above. It counts as biochemical. The following applies: for IC50: 1 μM sirtuin, 1 mM NAD, 30 min pre-incubation, H3K9Ac, 10 minutes. As to the method: as §1, with “Then” for “Distinct selectivity profiles were found for each of the inhibitors studied. Different concentrations of TA, TB, TH, or TM were pre-incubated with 1 μM of the sirtuin and 1 mM NAD in 20 mM Tris-HCl buffer (pH 8.0) with 1 mM dithiothreitol (DTT) at 37° C. for 30 minutes. Then”
Sequence of Sirt2 (Q8IXJ6 whole entry): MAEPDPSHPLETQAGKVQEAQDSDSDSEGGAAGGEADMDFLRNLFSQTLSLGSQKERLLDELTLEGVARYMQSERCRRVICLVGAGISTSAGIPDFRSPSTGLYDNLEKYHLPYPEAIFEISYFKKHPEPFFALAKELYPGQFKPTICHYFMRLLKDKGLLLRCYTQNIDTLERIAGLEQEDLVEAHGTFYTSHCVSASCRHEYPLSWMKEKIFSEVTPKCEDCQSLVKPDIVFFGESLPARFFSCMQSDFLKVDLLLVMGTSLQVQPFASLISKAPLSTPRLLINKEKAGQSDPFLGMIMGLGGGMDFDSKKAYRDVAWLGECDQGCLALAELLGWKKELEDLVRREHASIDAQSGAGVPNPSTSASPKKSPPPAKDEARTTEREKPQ

The next series has as its target Sirt3 (Homo sapiens (Human), UniProt Q9NTG7). Described as above. It counts as biochemical. The settings on record: 1 μM sirtuin, 1 mM NAD, 30 min pre-incubation. The protocol:
as §1

The target in another series is Sirt5 (Homo sapiens (Human), UniProt Q9NXA8). In words: Sirtuin deacylase inhibition, HPLC assay (H3K9Su peptide). The format is biochemical. The following applies: 1 μM sirtuin, 1 mM NAD, 30 min pre-incubation, 10 minutes. The protocol: as §1
Sequence of Sirt5 (Q9NXA8 37-310): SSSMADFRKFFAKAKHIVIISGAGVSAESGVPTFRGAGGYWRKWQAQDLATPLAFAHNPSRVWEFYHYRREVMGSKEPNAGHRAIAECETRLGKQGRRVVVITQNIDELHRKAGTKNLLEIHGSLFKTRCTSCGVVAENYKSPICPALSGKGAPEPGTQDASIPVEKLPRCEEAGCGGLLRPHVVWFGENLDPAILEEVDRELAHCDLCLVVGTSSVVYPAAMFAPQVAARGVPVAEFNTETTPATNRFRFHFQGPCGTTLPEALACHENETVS
A further series deals with MCF10a normal cell line. In words: Low serum survival assay (normal cell proliferation). The following applies: 25 μM, FIG. 3(B), compared with MCF7. The format is cell-based, human.
Series [1] has as its system triple negative breast cancer cell line MDA-MB-231. In words: Soft agar assay (anchorage-independent growth). The settings on record: 25 μM, FIGS. 4(A), 4(B). It counts as cell-based. As to the method:
Next, the ability of these inhibiting compounds to inhibit cancer cell proliferation was tested. MCF-7 and MDA-MB-231 cells (ATCC) were both maintained in RPMI 1640 media (Invitrogen®) supplemented with 10% heat-inactivated fetal bovine serum (FBS). MCF-10A (ATCC) cells were maintained in Dulbecco's Modified Eagle Medium: Nutrient Mixture F-12 (DMEM/F12) (Invitrogen®) supplemented with 10% horse serum (Invitrogen®).
The 0.6% agarose type VII (Sigma), 10% FBS and 1% Penicillin-Streptomycin (Invitrogen®) were prepared in RPMI 1640 medium, and added to a six-well culture plate (2 mL/well). The plates were kept at […] for 20 minutes to allow the agarose to solidify. Plates were then incubated at 37° C. for 5 minutes before the addition of the 1 mL soft agar/cell solution prepared by mixing 0.3% agarose type VII, 10% FBS, 1% Penicillin-Streptomycin and ˜3000 cells in RPMI 1640 medium. Again, the plates were kept at 4° C. for 20 minutes to allow the agarose to solidify. After the plates were incubated at 37° C. for 7 days, 1 mL of RPMI 1640 medium with 0.3% agarose type VII, 10% FBS and 1% Penicillin-Streptomycin was added to the plates and the plates kept at 4° C. for 20 minutes to allow the agarose to solidify. After the plates were incubated at 37° C. for another 7 days, the colony formations were examined under a microscope. All the experiments were duplicated. […]

“Also recorded” adds a separate entry of the source.

The values below come from patent publication US9359293B2, “Methods of treatment using modulators of SIRT2” (priority 2011, dated 2016).

Sequence of Sirt3 (Q9NTG7 whole entry): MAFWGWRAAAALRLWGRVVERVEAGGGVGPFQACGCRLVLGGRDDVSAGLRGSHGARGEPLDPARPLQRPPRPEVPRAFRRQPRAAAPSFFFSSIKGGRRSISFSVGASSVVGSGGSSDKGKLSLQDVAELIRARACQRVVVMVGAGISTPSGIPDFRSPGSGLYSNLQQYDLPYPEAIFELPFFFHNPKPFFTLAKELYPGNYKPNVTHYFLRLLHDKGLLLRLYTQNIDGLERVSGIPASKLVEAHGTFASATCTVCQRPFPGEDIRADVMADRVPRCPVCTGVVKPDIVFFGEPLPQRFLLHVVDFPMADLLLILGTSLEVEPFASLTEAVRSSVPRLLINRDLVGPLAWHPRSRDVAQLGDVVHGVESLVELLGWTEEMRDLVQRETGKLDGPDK

In the case of `CC(=S)NCCCCC(NC(=O)OCc1ccccc1)C(=O)Nc1ccccc1` (stereo not shown) [TA], the IC50 (commonly the concentration that inhibits the measured activity by half) against Sirt7 is over 205 µM; against Sirt6 it was over 205 µM; against Sirt1, 30 µM; against Sirt2, 105 µM; against Sirt3, over 205 µM; against Sirt5, over 205 µM.

In the case of `CCCCCCCCCCCCCC(=S)NCCCCC(NC(=O)OCc1ccccc1)C(=O)Nc1ccccc1` (stereo not shown) [TM], the IC50 on Sirt7, against Sirt6 and against Sirt5 was over 205 µM each time. Moreover, the “effect on growth of MCF10a normal non-tumorigenic cells” value with MCF10a normal cell line is “much less than that in the MCF7 cancer cell line; also recorded: can still grow”. In addition, in series [1], the “inhibition of anchorage-independent growth of MDA-MB-231” value is given as “can inhibit the anchorage-independent growth”.

For `CCCCCCC(=S)NCCCCC(NC(=O)OCc1ccccc1)C(=O)Nc1ccccc1` (stereo not shown) [TH], the IC50 against Sirt7 was over 205 µM; on Sirt6 it was over 205 µM; against Sirt1 it was 0.31 µM; against Sirt2, 0.12 µM; at Sirt5, over 205 µM. In addition, the “effect on growth of MCF10a normal non-tumorigenic cells” value with MCF10a normal cell line is listed as “much less than that in the MCF7 cancer cell line; also recorded: can still grow”. Also, on Sirt1, the “inhibition of Sirt1 (in words)” value is “efficiently inhibit”. Further, the “inhibition of Sirt2 (in words)” value against Sirt2 (summary of Table 1) is reported as “efficiently inhibit”.

For `CCCC(=S)NCCCCC(NC(=O)OCc1ccccc1)C(=O)Nc1ccccc1` (stereo not shown) [TB], the IC50 against Sirt7 was over 205 µM; against Sirt6 it was over 205 µM; on Sirt1, 2.4 µM; against Sirt2 it was 3 µM; against Sirt5, over 205 µM. For the same molecule, the “inhibition of Sirt1 (in words)” value on Sirt1 is recorded as “efficiently inhibit”.
